Results as given in patent publication US6855829B2, “3-fluoro-2-oxindole modulators of KCNQ potassium channels and use thereof in treating migraine and mechanistically related disease” (Bristol-Myers Squibb Company, priority 2001, dated 2005).
Entries after “also recorded” stand apart in the source; their conditions may differ. Read-outs that look alike come from different tables or passages of the source.

Legend:
[1] = test system: SSS-stimulated trigeminal activity; details: cited from earlier work
[2] = test system: SSS-stimulated field responses recorded in the trigeminal nucleus caudalis; assay: SSS-stimulated trigeminal field response (in vivo model of migraine); design: species or system rat
Protocol: (§1) Male Long-Evans rats (Harlan, 250-400 g) were used in the experiments described in this example. Prior to testing, rats were allowed access to food and water ad libitum and were maintained on a 12:12 hours light/dark cycle. Rats were group housed in an Association for Assessment and Accreditation of Laboratory Animal Care (A.A.A.L.A.C.) accredited facility and cared for in strict compliance with all applicable regulations.
SSS stimulation and recording were performed in a manner consistent with previously published methods using cat (K. L. Hoskin et al., 1996, Brain, 119:101-108) and rat (M. J. Cumberbatch et al., 1998, Eur. J. Pharmacol., 362:43-46; and M. J. Cumberbatch et al., 1999, Br. J. Pharmacol., 126:1478-1486) animal models. Rats were anesthetized with 1.2 g/kg i.p. urethane (#U-2500, Sigma Chemical Company, St. Louis, Mo.) and given supplemental urethane as needed. In the case of intravenous (i.v.) drug administration (e.g., (+)-3-[5-Chloro-2-[(2,2,2-trifluoroethoxy)phenyl]-1,3-dihydro-3-fluoro-6-(trifluoromethyl)-2H-indol-2-one), the jugular veins of the rats were cannulated using sylastic tubing pre-filled with vehicle. […]
Stimulated field responses were recorded in the trigeminal nucleus caudalis using Teflon coated stainless-steel microelectrodes (5 MΩ impedance, Frederick Haer, Brunswick, Me.) and amplified and filtered (0.1 Hz-10 kHz) using a differential amplifier (#IsoDAM8, World Precision Instruments, Sarasota, Fla.). […]
Three baseline measures (i.e., 100% of control), each consisting of 100 evoked trigeminal field potentials, were sampled prior to drug injection. […] Following injection of test substances, data were sampled for 1 hour, averaged into 5 minute bins (90 evoked potentials) and expressed as a percent change from average baseline values for the purposes of statistical analysis. Data were analyzed using repeated measures analyses of variance comparing vehicle and drug effects. […]

[3] = target: human KCNQ5 (hKCNQ5) (Homo sapiens, UniProt Q9NR82); assay: Two-electrode voltage clamp, Xenopus oocyte-expressed hKCNQ5-mediated outward currents; assay type: cell-based; details: Xenopus oocytes, n=3, single concentration (10 or 20 μM)
human KCNQ5 (hKCNQ5), sequence (Q9NR82 whole entry): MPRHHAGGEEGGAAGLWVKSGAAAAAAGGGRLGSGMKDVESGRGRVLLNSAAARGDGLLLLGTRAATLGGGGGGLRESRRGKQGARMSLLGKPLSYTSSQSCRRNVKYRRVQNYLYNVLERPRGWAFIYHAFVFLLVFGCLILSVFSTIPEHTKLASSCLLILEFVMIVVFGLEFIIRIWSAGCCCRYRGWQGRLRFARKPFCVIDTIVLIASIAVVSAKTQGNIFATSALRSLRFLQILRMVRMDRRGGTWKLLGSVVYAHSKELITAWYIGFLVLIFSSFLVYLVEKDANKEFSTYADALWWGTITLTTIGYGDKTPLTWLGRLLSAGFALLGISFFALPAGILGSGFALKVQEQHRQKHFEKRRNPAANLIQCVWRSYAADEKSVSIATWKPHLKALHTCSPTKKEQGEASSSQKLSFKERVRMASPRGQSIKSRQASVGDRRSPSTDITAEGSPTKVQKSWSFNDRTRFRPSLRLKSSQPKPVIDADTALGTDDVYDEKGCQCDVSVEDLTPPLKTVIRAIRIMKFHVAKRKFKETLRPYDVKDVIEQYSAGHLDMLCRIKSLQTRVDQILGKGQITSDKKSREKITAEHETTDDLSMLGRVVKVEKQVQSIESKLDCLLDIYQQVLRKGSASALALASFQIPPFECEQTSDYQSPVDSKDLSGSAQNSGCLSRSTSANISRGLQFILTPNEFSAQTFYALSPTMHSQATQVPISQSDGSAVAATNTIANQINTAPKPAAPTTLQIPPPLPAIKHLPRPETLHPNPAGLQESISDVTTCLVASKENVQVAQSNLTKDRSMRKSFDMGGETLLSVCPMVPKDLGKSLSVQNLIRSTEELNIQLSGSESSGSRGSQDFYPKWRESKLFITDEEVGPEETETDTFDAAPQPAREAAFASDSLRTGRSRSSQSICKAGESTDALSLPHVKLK
Protocol: (§2) The ability of the compounds described herein to open KCNQ channels and increase whole-cell outward (K^+) KCNQ-mediated currents was assessed under voltage-clamp conditions by determining their ability to increase cloned […] KCNQ2 (mKCNQ2)-mediated, heteromultimeric murine KCNQ2/3 (mKCNQ2/3)-mediated, and heterologous human KCNQ5 (hKCNQ5)-mediated outward currents expressed in Xenopus oocytes. Oocytes were prepared and injected using standard techniques; each oocyte was injected with approximately 50 nl of mKCNQ2, or hKCNQ5 cRNA. In the case of mKCNQ2/3 heteromultimeric channel expression, equal amounts (25-50 nL) of each cRNA were co-injected.
(§3) Following injection, oocytes were maintained at 17° C. in ND96 medium containing (in mM): NaCl, 90; KCl, 1.0; CaCl2, 1.0; MgCl2, 1.0; HEPES, 5.0; pH 7.5. Horse serum (5%) and penicillin/streptomycin (5%) were added to the incubation medium. Recording commenced 2-6 days following mRNA injection. […]
(§4) Frog (Xenopus laevis) oocytes were impaled with electrodes (1-2 MΩ) and standard 2-electrode voltage clamp techniques were employed to record whole-cell membrane currents. […] Compounds were evaluated at a single concentration (10 or 20 μM), and the effect of the selected compounds of Formula I on KCNQ2 current was expressed as the percent of control current. […]

[4] = target: murine KCNQ2 (mKCNQ2) (Mus musculus, UniProt Q9Z351); assay: Two-electrode voltage clamp, Xenopus oocyte expressed mKCNQ2-mediated outward currents; assay type: cell-based; details: 10 μM, Xenopus oocytes
murine KCNQ2 (mKCNQ2), sequence (Q9Z351 whole entry): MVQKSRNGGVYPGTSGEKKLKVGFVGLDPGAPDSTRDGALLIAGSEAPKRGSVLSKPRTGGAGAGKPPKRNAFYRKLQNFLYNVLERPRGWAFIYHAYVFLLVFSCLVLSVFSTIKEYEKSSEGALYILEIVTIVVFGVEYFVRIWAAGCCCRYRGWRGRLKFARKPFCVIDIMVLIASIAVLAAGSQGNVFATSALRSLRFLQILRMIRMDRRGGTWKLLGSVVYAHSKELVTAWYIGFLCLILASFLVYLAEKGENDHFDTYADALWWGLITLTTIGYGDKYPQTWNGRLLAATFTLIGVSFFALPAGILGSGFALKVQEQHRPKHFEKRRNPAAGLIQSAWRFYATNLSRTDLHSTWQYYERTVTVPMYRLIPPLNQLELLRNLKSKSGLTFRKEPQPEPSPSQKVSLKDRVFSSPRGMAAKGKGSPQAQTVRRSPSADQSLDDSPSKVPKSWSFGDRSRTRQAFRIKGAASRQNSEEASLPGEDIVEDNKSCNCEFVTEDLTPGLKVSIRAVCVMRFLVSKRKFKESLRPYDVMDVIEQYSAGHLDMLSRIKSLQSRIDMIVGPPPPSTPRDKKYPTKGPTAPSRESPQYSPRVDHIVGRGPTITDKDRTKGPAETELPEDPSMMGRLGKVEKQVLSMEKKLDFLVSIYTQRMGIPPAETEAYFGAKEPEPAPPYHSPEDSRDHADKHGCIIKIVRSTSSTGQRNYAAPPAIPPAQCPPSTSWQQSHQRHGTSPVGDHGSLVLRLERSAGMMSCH
Protocol: as §2, §3, §4

[5] = test system: cortical spreading depression; assay: Cortical spreading depression elicited by KCl application; assay type: in vivo; details: rat, 0.1, 1.0, 5.0, 10.0 and 30.0 mg/kg i.v. vs vehicle (overall ANOVA p<0.001)
Protocol: as §1
Rats were anesthetized with urethane anesthesia (1.2 g/kg i.p.), implanted with a jugular vein catheter for drug injections, and placed in a stereotaxic frame. The skull was exposed and a small hole (approximately 2 mm by 3 mm) was drilled in the skull rostral to the lambdoid suture using a microdrill and steel burr creating a “well”. The dura was disrupted and a drop of mineral oil was placed in this well. Crystalline KCl was later applied to the well for 10 minutes to elicit spreading depression. Typically, this application produced a long-lasting series of spreading depressions.
Two additional holes were placed in the skull unilaterally at 4 and 8 mm rostral to the application hole. Silver wire electrodes were placed in these latter holes and secured to the skull using acrylic cement. […]
Differences between control and drug conditions were assessed using analyses of variance (ANOVA) and appropriate post-hoc analyses. […]

For CN(C)CCc1c[nH]c2ccc(Cn3cncn3)cc12 [rizatriptan], the “physiological measures of SSS-stimulated trigeminal activity” value (from here on “physiological measures”) ([1]; literature reports) is given as “decrease”.
For CN1C[C@H](C(=O)N[C@]2(C)O[C@@]3(O)[C@@H]4CCCN4C(=O)[C@H](Cc4ccccc4)N3C2=O)C[C@@H]2c3cccc4[nH]cc(c34)C[C@H]21 [dihydroergotamine], the “physiological measures” value ([1]; literature reports) is given as “decrease”.
For CNS(=O)(=O)Cc1ccc2[nH]cc(CCN(C)C)c2c1 [sumatriptan], the “physiological measures” value ([1]; following blood-brain-barrier disruption, literature report) is listed as “decrease”.
For CN(C)CCc1c[nH]c2ccc(C[C@H]3COC(=O)N3)cc12 [zolmitriptan], the “physiological measures” value ([1]; literature reports) is given as “decrease”.
With O=C(NCc1ccc(C(F)(F)F)cc1)c1cnc(N2CCCC2)nc1C(F)(F)F [Compound 2, 2-(Pyrrolidin-1-yl)-4-(trifluoromethyl)-N-[[4-(trifluoromethyl)phenyl]methyl]pyrimidine-5-carboxamide] the “effect on SSS stimulation evoked trigeminal field potential amplitude” value ([2]; urethane anesthetized rats, 1 mg/kg i.v.) was “statistically significant (p=0.005) decrease”.
For O=C1Nc2cc(C(F)(F)F)ccc2C1(F)c1cc(Cl)ccc1OCC(F)(F)F (single isomer, unassigned; (+)) [Compound 1], the “human KCNQ5-mediated outward currents, % of control” value [3] was 157.4+/−6.0 % of control, the “increase of KCNQ2 current over the KCNQ2 current in controls” value [4] was over 150% and the “decrease in trigeminal field potentials from control amplitude” value ([2]; rat, 50 mg/kg i.v. (highest dose)) was 86.7±1.67%. For the same compound, the “effect on SSS-stimulated trigeminal field response” value ([2]; rat, doses 0.1, 1.0, 10.0, 30.0 and 50.0 mg/kg i.v., vs vehicle (p<0.01 in all cases; overall ANOVA p<0.001)) was “dose-dependent reduction; also recorded: significant reduction; also recorded: dose-dependent decrease” and the “number of spreading depressions produced by a single 10 min KCl application” value [5] was “significant reduction”.
In the case of CNS(=O)(=O)CCc1ccc2[nH]cc(C3CCN(C)CC3)c2c1 [naratriptan], the “physiological measures” value ([1]; literature reports) is given as “decrease”.
